# Measurements as given in patent US20080311126A1, “Antisense Oligonucleotides Directed to Ribonucleotide Reducatase R2 and Uses Thereof in Combination Therapies for the Treatment of Cancer” (Genesense Technologies, Inc, priority 2004, published 2008).
# “Also recorded” adds a separate entry of the source.
# Legend:
# Format in all cases: in vivo
# [1] = tested on: PC-3 human prostatic cancer cells; test: PC-3 prostatic tumour xenograft in SCID mice; details: FIG. 14A; SEQ ID NO:1 10 mg/kg 18 times; mitoxantrone 2 mg/kg once
# Protocol: In both experiments, PC-3 human prostatic cancer cells (1×10^7 cells in 100 μl of PBS) were subcutaneously injected into the right flank of 6-7 weeks old male SCID mice. After the size of tumour reached an approximate volume of 50 mm^3, 14 days post tumour cell injection, SEQ ID NO:1 was administered by bolus infusion into the tail vein every other day at 10 mg/kg 18 times (FIG. 14A) or 17 times (FIG. 14B), respectively. Control animals received saline alone for the same period. Antitumour effect of SEQ ID NO:1 was further compared to that of mitoxantrone (Novantrone®) alone or in combination. Mitoxantrone was administered intravenously once at the beginning of the treatments at a dose of 2 mg/kg (FIG. 14A) or once a week for four weeks at a reduced dose of 0.8 mg/kg (FIG. 14B). All treatments were stopped at day 50 (FIG. 14A) or 48 (FIG. 14B), respectively. A day after the last treatment, tumours were excised from the animals and their weights were measured.
# [2] = tested on: MDA-MB435-To.1 human Taxol-resistant breast adenocarcinoma cells; test: MDA-MB435-To.1 Taxol-resistant breast adenocarcinoma, fat pad injection in SCID mice; design: Tumour weight as % of saline control: concentration or dose not given beside the values; details: for Tumour weight as % of saline control: MDA-MB435-To.1 (breast), Taxol resistance
# Protocol: MDA-MB435-To.1 human Taxol-resistant breast adenocarcinoma cells (4×10^6 cells in […] of PBS) were injected into the fat pad (inside of right leg) of 6-7 weeks old female SCID mice. After the size of tumour reached an approximate volume of 100 mm^3, 20 days post tumour cell injection, SEQ ID NO:1 was administered by bolus infusion into the tail vein every other day at 10 mg/kg 15 times. Control animals received saline alone for the same period. Antitumour effect of SEQ ID NO:1 was further compared to that of Cisplatin or Taxol alone. Cisplatin was administered intravenously once a week for four weeks at a dose of 4 mg/kg. Taxol was administered intravenously once a week for four weeks at a dose of 20 mg/kg.
# Antitumour activities were estimated by the inhibition of tumour volume, which was measured with caliper. Bach point represents mean tumour volume calculated from 9-10 animals per experimental group. […] As expected, treatment with Taxol during the same period was ineffective against Taxol-resistant tumour.
# MDA-MB435-To.1 human Taxol-resistant breast adenocarcinoma cells (4×10^6 cells in 100 μl of PBS) were injected into the fat pad (inside of right leg) of 6-7 weeks old female CB-17 SCID mice. After the size of tumour reached an approximate volume of 100 mm^3, 17 days post tumour cell injection, SEQ ID NO:1 was administered by bolus infusion into the tail vein every other day at 10 mg/kg. Control animals received saline alone for the same period. Antitumour effect of SEQ ID NO:1 was compared to that of Cisplatin alone and in combination. Cisplatin was administered intravenously once a week for four weeks at a dose of 4 mg/kg. Antitumour activities were estimated by the inhibition of tumour volume, which was measured with caliper. Each point represents mean tumour volume calculated from 10 animals per experimental group. At the end of the study the animals were sacrificed and tumours weighed.
# Mouse Fibrosarcoma = test: Tumour growth assay, mouse fibrosarcoma in C3H mice
# Human Renal Carcinoma = test: Tumour growth assay, human renal carcinoma in mice
sequence,measurement,setting,value
"GGCTAAATCGCTCCACCAAG (chemistry not given here) [SEQ ID NO: 1, antisense oligonucleotide that hybridizes to the coding region of human ribonucleotide reductase R2 mRNA]",antitumour effect (tumour weight),[1],significant delay of tumour growth
same,antitumour effect (tumour volume),"[2]; Example 13.5, SEQ ID NO:1 10 mg/kg 15 times, Cisplatin 4 mg/kg, Taxol 20 mg/kg i.v. weekly for four weeks",significant reduction of tumour weight; also recorded: superior to the inhibitory effects observed with Cisplatin
same,"antitumour effect (tumour volume, tumour weight)","[2]; Example 13.6, CB-17 SCID mice, SEQ ID NO:1 10 mg/kg every other day, Cisplatin 4 mg/kg i.v. weekly",significant reduction of tumour weight; also recorded: superior to the inhibitory effects observed with Cisplatin
same,Tumour weight as % of saline control,[2]; CB-17/SCID,37%
same,Tumour weight as % of saline control,[2]; SCID,42%
same,Inhibition of tumour volume,"Mouse Fibrosarcoma; C3H mice, Day 15 after tumour implantation",mice by approximately 80% on Day 15
same,dose dependence of decrease in tumour weight,"Mouse Fibrosarcoma; C3H mice, doses of 0.5 to 30 mg/kg",Dose-dependent decrease in tumour
same,Inhibition of tumour weight,Mouse Fibrosarcoma; Mouse Fibrosarcoma,approximately 80%
same,Inhibition of tumour size,Human Renal Carcinoma; Human Renal Carcinoma (first entry),Approximately 90% inhibition of
same,Inhibition of tumour size,Human Renal Carcinoma; Human Renal Carcinoma^2 (second entry),Approximately 97% inhibition of
